Test results reported in patent US20250214977A1, “STAT6 INHIBITORS AND USES THEREOF” (Kymera Therapeutics, Inc., priority 2024, published 2025).
pIC50: −log10 of the molar value.

The molecules below were run on Phosphorylation of STAT6 in human A549 cells (assay: Phosphorylated STAT6 (pSTAT6) flow cytometry assay in human A549 cells). Conditions: read-out: STAT6 IL4 pSTAT6 assay in A549 cells: Average IC50.
Assay type: cell-based
Text: Example 3. Phosphorylated STAT6 (pSTAT6) Flow Cytometry Assay in Human A549 Cells
Phosphorylation of STAT6 in human A549 cells was quantitatively measured using flow cytometry technology.

pIC50 | Molecule
6.00 to 7.00 | CN(C)CCN(C)C(=O)c1cc2cc(C3=CCCN(C(=O)CCn4ccnn4)C3)ccc2o1 [Example I-844]
6.00 to 7.00 | CCC1=C(c2cc(C3=CCCN(C(=O)CCn4ccnn4)C3)c(F)c3[nH]c(C(=O)N4CCN(c5ncc(F)cc5OC)CC4)cc23)CCCC1 [Example I-1172]
> 7.00 | COc1ccccc1-c1cc(C2=CCCN(C(=O)CCn3ccnn3)C2)c(F)c2[nH]c(C(=O)N3CCO[C@H](C)C3)cc12 [Example I-1007]
> 7.00 | COc1cc(F)cnc1-c1cc(C2=CCCN(C(=O)CCn3ccnn3)C2)c(F)c2[nH]c(C(=O)N3CCN(c4ncc(F)cc4OC)CC3)cc12 [Example I-614]
> 7.00 | COc1cc(F)cnc1N1CCN(C(=O)c2cc3c(-c4ccc(C(=O)N5CCCC5)cc4F)cc(C4=CCCN(C(=O)CCn5ccnn5)C4)c(F)c3[nH]2)CC1 [Example I-1143]
> 7.00 | COc1cc(F)cnc1N1CCN(C(=O)c2cc3c(-c4ccc(-n5nc(C)cc5C)cc4)cc(C4=CCCN(C(=O)CCn5ccnn5)C4)c(F)c3[nH]2)CC1 [Example I-1114]
> 7.00 | CCc1ccncc1-c1cc(C2=CCCN(C(=O)CCn3ccnn3)C2)c(F)c2[nH]c(C(=O)N3CCN(c4ncc(F)cc4OC)CC3)cc12 [Example I-476]
5.00 to 6.00 | COc1ccccc1-c1cc(C2=CCCN(C(=O)CCn3ccnn3)C2)c(F)c2[nH]c(C(=O)N3CCN(c4ccc5c(c4)c4ccccc4n5C)CC3)cc12 [Example I-770]
> 7.00 | CCOc1ccncc1-c1cc(C2=CCCN(C(=O)CCn3ccnn3)C2)c(F)c2[nH]c(C(=O)N3CCN(c4ncc(C)nc4OC)CC3)cc12 [Example I-1041]
> 7.00 | COc1cc(F)cnc1N1CCN(C(=O)c2cc3c(-c4cnn(-c5ccccc5)c4C)cc(C4=CCCN(C(=O)CCn5ccnn5)C4)c(F)c3[nH]2)CC1 [Example I-625]
6.00 to 7.00 | COc1ccccc1-c1cc(C2=CCCN(C(=O)CCn3ccnn3)C2)c(F)c2[nH]c(C(=O)N3CCN(c4cc(C)cc5c[nH]nc45)CC3)cc12 [Example I-921]
< 4.00 | COc1ccncc1-c1cc(C2=CCCN(C(C)=O)C2)c(F)c2[nH]c(C(=O)N3CCN(c4ncc(F)cc4OC)CC3)cc12 [Example I-696]
> 7.00 | COc1cc(F)cnc1N1CCN(C(=O)c2cc3c(C4=CCOCC4)cc(C4=CCCN(C(=O)CCn5ccnn5)C4)c(F)c3[nH]2)CC1 [Example I-1156]
> 7.00 | COc1ccccc1-c1cc(C2=CCCN(C(=O)CCn3ccnn3)C2)c(F)c2[nH]c(C(=O)N3CCN(c4ncccc4Cl)CC3)cc12 [Example I-324]
> 7.00 | COc1cccc(N2CCN(C(=O)c3cc4c(-c5cccnc5OC)cc(C5=CCCN(C(=O)CCn6ccnn6)C5)c(F)c4[nH]3)CC2)n1 [Example I-606]
> 7.00 | (1S)-3-[4-(4-ethyl-3-pyridyl)-7-fluoro-2-[4-(5-fluoro-3-methoxy-2-pyridyl)piperazine-1-carbonyl]-1H-indol-6-yl]cyclohex-3-ene-1-carboxylic acid [Example I-809]
> 7.00 | COc1ccccc1-c1cc(C2=CCCN(C(=O)CCn3ccnn3)C2)c(F)c2[nH]c(C(=O)N3CCN(c4ncccc4C(F)(F)F)CC3)cc12 [Example I-329]
> 7.00 | COc1ccccc1-c1cc(C2=CCCN(C(C)=O)C2)c(F)c2[nH]c(C(=O)N(C)C)cc12 [Example I-1069]
> 7.00 | COc1cc(F)cnc1N1CCN(C(=O)c2cc3c(-c4cc(C)cc5cccnc45)cc(C4=CCCN(C(=O)CCn5ccnn5)C4)c(F)c3[nH]2)CC1 [Example I-633]
> 7.00 | COc1ccccc1-c1cc(C2=CCCN(C(=O)CCn3ccnn3)C2)c(F)c2[nH]c(C(=O)N(C)CCc3ccccn3)cc12 [Example I-986]

pIC50 | Molecule
6.00 to 7.00 | COc1cc(F)cnc1N1CCN(C(=O)c2cc3c(-c4cnn(-c5ccccc5)c4)cc(C4=CCCN(C(=O)CCn5ccnn5)C4)c(F)c3[nH]2)CC1 [Example I-671]
> 7.00 | CN(C)C(=O)c1cc2c(F)c(C3=CCCN(C(=O)C4Cc5ccccc5CN4C=O)C3)ccc2o1 (stereo not shown) [Example I-374, 4-fluoro-5-(1-(2-formyl-1,2,3,4-tetrahydroisoquinoline-3-carbonyl)-1,2,5,6-tetrahydropyridin-3-yl)-N,N-dimethylbenzofuran-2-carboxamide]
6.00 to 7.00 | CN(C)C(=O)c1cc2cc(C3=CCCN(C(=O)C(Cn4ccnn4)c4cccc(C#N)c4)C3)ccc2o1 (stereo not shown) [Example I-835]
< 4.00 | COc1cnccc1-c1cc(C2=CCCN(C(C)=O)C2)c(F)c2[nH]c(C(=O)N3CCN(c4ncccc4OC)CC3)cc12 [Example I-408]
> 7.00 | CCOc1ccc(-c2cc(C3=CCCN(C(=O)CCn4ccnn4)C3)c(F)c3[nH]c(C(=O)N4CCN(c5ncc(F)cc5OC)CC4)cc23)c(OC)c1 [Example I-661]
> 7.00 | COc1ccncc1-c1cc(C2=CCCN(C(=O)CCn3ccnn3)C2)c(F)c2[nH]c(C(=O)N3CCN(c4nccnc4OC)CC3)cc12 [Example I-441]
5.00 to 6.00 | CN(C)C(=O)c1cc2c(F)c(C3=CCCN(C(=O)C4Cc5ccccc5CN4C=O)C3)ccc2o1 (stereo not shown) [Example I-1192]
> 7.00 | COc1cc(F)cnc1N1CCN(C(=O)c2cc3c(-c4ccc(OC5CCOCC5)cc4)cc(C4=CCCN(C(=O)CCn5ccnn5)C4)c(F)c3[nH]2)CC1 [Example I-1111]
6.00 to 7.00 | CC(=O)N1CCC=C(c2cc(-c3ccccc3C(N)=O)c3cc(C(=O)N(C)C)[nH]c3c2F)C1 [Example I-1099]
> 7.00 | COc1cc(F)cnc1N1CCN(C(=O)c2cc3c(C4CCN(C)CC4)cc(C4=CCCN(C(=O)CCn5ccnn5)C4)c(F)c3[nH]2)CC1 [Example I-725]
4.00 to 5.00 | COc1ccncc1-c1cc(C2=CCCN(C(=O)CCc3nccs3)C2)c(F)c2[nH]c(C(=O)N3CCN(c4ncccc4OC)CC3)cc12 [Example I-497]
> 7.00 | COc1cccnc1C1=CCN(C(=O)c2cc3c(-c4cnc5ccccc5c4OC)cc(C4=CCCN(C(=O)CCn5ccnn5)C4)c(F)c3[nH]2)CC1 [Example I-451]
6.00 to 7.00 | COc1ccccc1-c1cc(C2=CCCN(C(=O)CCn3ccnn3)C2)c(F)c2[nH]c(C(=O)N3CCN(c4cc(C)c(O)c(C)c4)CC3)cc12 [Example I-1032]
> 7.00 | CCn1ncc2c1CN(C(=O)c1cc(C3=CCCCC3)c3c(c1)cc(C1=CCCN(C(=O)CCn4ccnn4)C1)n3CC1CC1)C2 [Example I-765]
> 7.00 | COc1ccccc1-c1cc(C2=CCCN(C(=O)CCn3ccnn3)C2)c(F)c2[nH]c(C(=O)N3CCN(c4ccn(C)n4)CC3)cc12 [Example I-933]
> 7.00 | CCc1cc(C)ncc1-c1cc(C2=CCCN(C(=O)CCn3cccn3)C2)c(F)c2[nH]c(C(=O)N3CCN(c4nc(C)ccc4OC)CC3)cc12 [Example I-514]
6.00 to 7.00 | COc1ccccc1-c1cc(C2=CCCN(C(=O)CCn3ccnn3)C2)c(F)c2[nH]c(C(=O)N3CC4CN(c5ncccc5OC)CC4C3)cc12 (stereo not shown) [Example I-912]
> 7.00 | COc1ccnc(N2CCN(C(=O)c3cc4c(-c5ccccc5OC)cc(C5=CCCN(C(=O)CCn6ccnn6)C5)c(F)c4[nH]3)CC2)c1 [Example I-900]
> 7.00 | CCc1cnccc1-c1cc(C2=CCCN(C(=O)CCn3cccn3)C2)c(F)c2[nH]c(C(=O)N3CCN(c4ncc(F)cc4OC)CC3)cc12 [Example I-688]
> 7.00 | COc1ccccc1-c1cc(C(=O)N2CCN(c3ncc(F)cc3OC)CC2)cc2cc(C3=CCCN(C(=O)CCn4ccnn4)C3)n(CC(C)C)c12 [Example I-521]
